# Laboratory results as given in US7888059B2, “Highly purified and stabilized Na,K-ATPase isoforms and methods of producing same” (Yeda Research and Development Co. Ltd., priority 2006, dated 2011).
# Read-outs that look alike come from different tables or passages of the source.
# Assays:
# Type in all cases: biochemical
# Na,K-ATPase = Na,K-ATPase activity and stability with different phosphatidyl serines (FIG. 7); conditions: for NKA activity: measured immediately after elution from the BD Talon beads
# Method: (§1) Urea-treated membranes were homogenized with n-dodecyl-β-maltoside (DDM:protein, 2:1 w/w) (cat. No D310, Anatrace) in a medium containing NaCl, 250 mM; Tris.HCl, 20 mM pH 7.4; imidazole, 5 mM; PMSF, 0.5 mM; and glycerol, 10%. The protein concentration could be varied from 1-5 mg/ml and DDM adjusted accordingly from 2-10 mg/ml respectively. The unsolubilized material was removed by ultracentrifugation. Purification was done by metal-chelate chromatography using BD Talon, metal affinity resin (Co^2+-chelate). The DDM-solubilized membranes were incubated overnight at 4° C. with BD Talon beads, at a ratio of 100 μl beads per supernatant from 10 mg of membranes. EDTA was added at 50-250 μM at protein concentrations 1-5 mg/ml, respectively. The beads were washed twice for five minutes with vortexing with five volumes of a solution containing NaCl, 100 mM; Tris.HCl, 20 mM pH 7.4; C12E8, 0.1 mg/ml; DOPS or SOPS 0.05 mg/ml or other lipids and cholesterol at 0.01 mg/ml, as indicated; glycerol, 10%, and imidazole, 10 mM. Protein was eluted by mixing the beads for 40 minutes at 0° C. with one volume of a solution containing imidazole, 150 mM; NaCl, 100 mM; Tris.HCl, 20 mM pH 7.4, C12E8, 0.1 mg/ml; DOPS, or SOPS 0.05 mg/ml or other lipids and cholesterol as indicated; glycerol, 10%. The eluted protein was stored at 0° C. […] Protein concentration was determined by comparative gel densitometry with pig kidney Na^+,K^+-ATPase or by Lowry assay.
# (§2) Na^+,K^+-ATPase assays were done as described in (Cohen et al., 2005, J Biol Chem, 280, 16610-16618; Strugatsky et al., 2003, J Biol Chem, 278, 46064-46073). 0.1-0.2 μg of purified protein was incubated at 37° C. for 2-10 min in 0.1 ml of Na,K-ATPase reaction medium containing 130 mM NaCl; 20 mM KCl; 3 mM MgCl2; 25 mM Histidine pH 7.4. The reaction was started by addition of 2 mM ATP [^32P-ATP].
# The experiment in FIG. 7 compared the stability with different chain lengths and saturation of the side chains.
# porcine α1β1 = molecular target: T1, porcine α1β1 (Sus scrofa, UniProt P05024); assay: Na,K-ATPase activity of porcine α1β1 with different phospholipids (FIG. 6A); conditions: porcine α1β1, FIG. 6A
# T1 construct: made in house; host or cells: Pichia pastoris SMD1165
# Method: as §1, §2
# Both DOPS and DOPI are acid phospholipids, while DOPC and DOPE have no net charge.
# human α1β1 [1] = molecular target: T2, human α1β1 (Homo sapiens, UniProt P05023); assay: Initial Na,K-ATPase activity of human α1β1 prepared with phospholipid with or without cholesterol; conditions: human α1β1, initial activity following elution from the beads, 37° C.
# T2 construct: The coding regions were excised with XbaI and subcloned; made in house; host or cells: Pichia pastoris SMD1165
# Method: as §1, with “mM.” for “mM. Protein was eluted by mixing the beads for 40 minutes at 0° C. with one volume of a solution containing imidazole, 150 mM; NaCl, 100 mM; Tris.HCl, 20 mM pH 7.4, C12E8, 0.1 mg/ml; DOPS, or SOPS 0.05 mg/ml or other lipids and cholesterol as indicated; glycerol, 10%. The eluted protein was stored at 0° C.”, “assay. […]” for “assay.”
# human α1β1 [2] = molecular target: T2, human α1β1; assay: Stabilization of human α1β1 Na,K-ATPase activity over time (lipids, sterols, FXYD1); conditions: for stabilizing effect of sterol on Na,K-ATPase activity: human α1β1 prepared with DOPS or DOPC, FIGS. 9A-B
# Method: as §1, §2
# (§3) Aliquots of the preparations were incubated either at 37° C. or 45° C., respectively, for the indicated times, and then returned to 0° C., prior to measurement of Na,K-ATPase activity.
# human α1β1 [3] = assay: as above
# Method: as §1, §2, §3
# human α2β1 [4] = molecular target: T3, human α2β1 (Homo sapiens, UniProt P50993); assay: Stabilization of human α2β1 Na,K-ATPase activity over time (lipids, sterols, FXYD1); conditions: for stabilizing effect of sterol on α2β1 complex: 0° C., together with DOPS
# T3 construct: The coding regions were excised with XbaI and subcloned; made in house; host or cells: Pichia pastoris SMD1165 (clone "b", induced at 20° C.)
# Method: as §1, §2, §3
# human α1β1 [5] = molecular target: T2, human α1β1; assay: biochemical
# Method: as §2
# (§4) The inhibitor was added directly to the reaction medium at 37° C. immediately prior to addition of ATP, which starts the reaction.
# human α2β1 [6] = molecular target: T3, human α2β1; assay: biochemical
# Method: as §2, §4
compound,measurement,setting,value
"CCCCCCCCCCCCCC(=O)OC[C@H](COP(=O)(O)OC[C@H](N)C(=O)O)OC(=O)CCCCCCCCCCCCC [DMPS, 1,2-Dimyristoyl-sn-Glycero-3-[Phospho-L-Serine]]",NKA activity,"Na,K-ATPase",11.48 µmol/min/mg
"CCCCCCCC/C=C\CCCCCCCC(=O)OC[C@H](COP(=O)([O-])OCC[N+](C)(C)C)OC(=O)CCCCCCC/C=C\CCCCCCCC [DOPC, 1,2-Dioleoyl-sn-Glycero-3-Phosphocholine]","maintenance of Na,K-ATPase activity with phospholipid",porcine α1β1,"somewhat lower initial Na,K-ATPase activity at 37 °C than for DOPS"
same,"Na, K-ATPase activity",human α1β1 [1],14.28 µmol/min/mg
"CCCCCCCC/C=C\CCCCCCCC(=O)OC[C@H](COP(=O)(O)OCCN)OC(=O)CCCCCCC/C=C\CCCCCCCC [DOPE, 1,2-Dioleoyl-sn-Glycero-3-Phosphoethanolamine]","maintenance of Na,K-ATPase activity with phospholipid",porcine α1β1,DOPS>DOPI>>DOPE
"CCCCCCCC/C=C\CCCCCCCC(=O)OC[C@H](COP(=O)(O)OC1C(O)C(O)C(O)[C@@H](O)C1O)OC(=O)CCCCCCC/C=C\CCCCCCCC (some centres unmarked) [DOPI, 1,2-Dioleoyl-sn-Glycero-3-Phosphoinositol]","maintenance of Na,K-ATPase activity with phospholipid",porcine α1β1,DOPS>DOPI>>DOPE
"CCCCCCCC/C=C\CCCCCCCC(=O)OC[C@H](COP(=O)(O)OC[C@H](N)C(=O)O)OC(=O)CCCCCCC/C=C\CCCCCCCC [DOPS, 1,2-Dioleoyl-sn-Glycero-3-[Phospho-L-Serine]]",NKA activity,"Na,K-ATPase",11.42 µmol/min/mg
same,"maintenance of Na,K-ATPase activity with phospholipid",porcine α1β1,DOPS>DOPI>>DOPE
same,"Na, K-ATPase activity",human α1β1 [1],11.64 µmol/min/mg
same,half-time for loss of activity,"human α1β1 [2]; 37° C., human α1β1 prepared with DOPS, without PLM",about 70 minutes
same,"remaining activity, of initial activity","human α1β1 [2]; after 120 minutes at 37° C., human α1β1 prepared with DOPS, without PLM",approximately 20%
"CCCCCCCCCCCCCCCC(=O)OC[C@H](COP(=O)(O)OC[C@H](N)C(=O)O)OC(=O)CCCCCCCCCCCCCCC [DPPS, 1,2-Dipalmitoyl-sn-Glycero-3-[Phospho-L-Serine]]",NKA activity,"Na,K-ATPase",6.46 µmol/min/mg
"CCCCCCCCCCCCCCCCCC(=O)OC[C@H](COP(=O)(O)OC[C@H](N)C(=O)O)OC(=O)CCCCCCCCCCCCCCCCC [DSPS, 1,2-Distearoyl-sn-Glycero-3-[Phospho-L-Serine]]",NKA activity,"Na,K-ATPase",4.72 µmol/min/mg
"CCCCCCCC/C=C\CCCCCCCC(=O)O[C@H](COC(=O)CCCCCCCCCCCCCCC)COP(=O)(O)OC[C@H](N)C(=O)O [POPS, 1-Palmitoyl-2-Oleoyl-sn-Glycero-3-[Phospho-L-Serine]]",NKA activity,"Na,K-ATPase",12.58 µmol/min/mg
"CCCCCCCC/C=C\CCCCCCCC(=O)O[C@H](COC(=O)CCCCCCCCCCCCCCCCC)COP(=O)(O)OC[C@H](N)C(=O)O [SOPS, I-Stearoyl-2-Oleoyl-sn-Glycero-3-[Phospho-L-Serine]]","stability of Na,K-ATPase activity over time","Na,K-ATPase; 0° C., FIG. 7",declined even more slowly than with the standard DOPS
same,NKA activity,"Na,K-ATPase",11.92 µmol/min/mg
same,stabilizing effect of phosphatidyl serine on α1β1,"human α1β1 [3]; 37° C. and 0° C., FIGS. 8A-B (porcine and human α1β1)",significantly more stabilizing than DOPS
CC(C)CCC[C@@H](C)[C@H]1CC[C@H]2[C@@H]3CC=C4C[C@@H](O)CC[C@]4(C)[C@H]3CC[C@]12C [cholesterol],stabilizing effect of sterol on α2β1 complex,human α2β1 [4],greatly stabilized
same,"stabilizing effect of sterol on Na,K-ATPase activity",human α1β1 [2]; 37° C.,greatly stabilizes
C[C@H]1O[C@@H](O[C@H]2[C@@H](O)C[C@H](O[C@H]3[C@@H](O)C[C@H](O[C@H]4CC[C@@]5(C)[C@H](CC[C@@H]6[C@@H]5C[C@@H](O)[C@]5(C)[C@@H](C7=CC(=O)OC7)CC[C@]65O)C4)O[C@@H]3C)O[C@@H]2C)C[C@H](O)[C@@H]1O [digoxin],"offset (activity not inhibited), α1β1",human α1β1 [5],no significant offset
same,"offset (activity not inhibited), α2β1",human α2β1 [6],0.058±0.016
CC(C)[C@@H](C)/C=C/[C@@H](C)[C@H]1CC[C@H]2C3=CC=C4C[C@@H](O)CC[C@]4(C)[C@H]3CC[C@]12C [ergosterol],stabilizing effect of sterol on α2β1 complex,human α2β1 [4],much less effective than cholesterol
same,"stabilizing effect of sterol on Na,K-ATPase activity",human α1β1 [2]; 37° C.,only a minor stabilizing effect
CO[C@H]1[C@H](O)[C@H](O[C@H]2CC[C@@]3(C)[C@H](CC[C@@H]4[C@@H]3CC[C@]3(C)[C@@H](C5=CC(=O)OC5)CC[C@]43O)C2)O[C@@H](C)[C@@H]1O [neriifolin],"offset, α1","human α1β1 [5]; 37° C., FIG. 18B",0
same,IC50,"human α1β1 [5]; K0.5 for inhibition, α1, 37° C., FIG. 18B, reaction time not stated",50 ± 7 nM
same,α1/α2 preference,"human α1β1 [5]; conditions of the Na,K-ATPase reaction at 37° C.",no significant α1/α2 preference
same,"offset, α2","human α2β1 [6]; 37° C., FIG. 18B",0.12
same,IC50,"human α2β1 [6]; K0.5 for inhibition, α2, 37° C., FIG. 18B, reaction time not stated",29 ± 4.1 nM
C[C@@H]1O[C@@H](O[C@H]2C[C@@H](O)[C@]3(CO)[C@H]4[C@H](O)C[C@]5(C)[C@@H](C6=CC(=O)OC6)CC[C@]5(O)[C@@H]4CC[C@]3(O)C2)[C@H](O)[C@H](O)[C@H]1O [ouabain],extent of inhibition of α1β1,"human α1β1 [5]; 37° C., reaction 10 minutes",fully inhibited
same,"offset (activity not inhibited), α2β1","human α2β1 [6]; 37° C., 60 minutes",0.056±0.017
same,"offset (activity not inhibited), α2β1","human α2β1 [6]; 37° C., reaction 10 minutes",0.069±0.01
"PLM: human FXYD1, subsidiary subunit of Na,K-ATPase, Genbank Accession No. H23593","stability of Na,K-ATPase activity","human α2β1 [4]; 37° C., α2β1 prepared with SOPS/cholesterol with PLM",essentially stable for 60 minutes at 37 °C
same,"stability of Na,K-ATPase activity","human α1β1 [3]; 37° C., human α1β1, PLM with DOPS preparation, SOPS/cholesterol without PLM",essentially no loss of activity up to 120 minutes
